Results as given in article PMC4144712 (Biochemistry, 2014).

What was measured:
[1] = tested on: CCR5; test: Inhibition of FITC-DV1 binding in CCR5-expressing cell line; settings: data not shown
[2] = tested on: CCR3; test: Inhibition of FITC-DV1 binding in CCR3-expressing cell line; settings: data not shown
[3] = target: CXCR4 (Homo sapiens, UniProt P61073); test: CXCR4-FITC-DV1 competitive binding assay; settings: CHO-CXCR4 cells; 800 nM FITC-DV1
Sequence of CXCR4 (P61073 whole entry): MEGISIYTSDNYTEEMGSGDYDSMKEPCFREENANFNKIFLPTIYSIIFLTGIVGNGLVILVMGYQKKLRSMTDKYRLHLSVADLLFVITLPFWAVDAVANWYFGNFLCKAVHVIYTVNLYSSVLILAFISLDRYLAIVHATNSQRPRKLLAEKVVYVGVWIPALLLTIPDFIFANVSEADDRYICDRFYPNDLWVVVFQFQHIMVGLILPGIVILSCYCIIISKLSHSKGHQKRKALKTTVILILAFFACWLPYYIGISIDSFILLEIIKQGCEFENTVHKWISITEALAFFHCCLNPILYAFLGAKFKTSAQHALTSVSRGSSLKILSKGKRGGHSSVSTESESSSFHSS

RANTES: a common ligand of CCR5 and CCR3
inhibition of the binding of FITC-DV1 in CCR5-expressing cell line [1]: Neither ubiquitin, a ligand of CXCR4, nor RANTES (a common ligand of CCR5 and CCR3) inhibited the binding of FITC-DV1 | inhibition of the binding of FITC-DV1 in CCR3-expressing cell line [2]: Neither ubiquitin, a ligand of CXCR4, nor RANTES (a common ligand of CCR5 and CCR3) inhibited the binding of FITC-DV1

c1cc(CN2CCCNCCNCCCNCC2)ccc1CN1CCCNCCNCCCNCC1 [AMD3100]
inhibition of the binding of FITC-DV1 to CXCR4 (in words) [3]: inhibited the binding of FITC-DV1 to CXCR4
